Results taken from patent EP0531640B1, “Antibiotic LL-E19020 Gamma” (F. HOFFMANN-LA ROCHE AG, priority 1991, dated 1993).
≈ marks a conversion by molar mass, not a printed value.

How the values were obtained:
[1] = system: non-enterococcal streptococci; assay: MIC by agar dilution, summary for non-enterococcal streptococci; assay type: cell-based; conditions: 18 h; text summary: relatively good activity against non-enterococcal streptococci
Experimental: The in vitro antibacterial activity of LL-E19020 Gamma is determined against a spectrum of gram positive and gram negative bacteria by a standard agar dilution method. Mueller-Hinton agar containing 5% sheep blood and two-fold decreasing concentrations of LL-E19020 Gamma is poured into petri dishes. The agar surfaces are inoculated with 1 to 5X10^4 colony forming units of bacteria by means of the Steers replicating device. The lowest concentration of antibiotic that inhibits growth of a bacterial strain after 18 hours incubation is recorded as the minimal inhibitory concentration for that strain.
• 1. Serial two-flow dilutions of drug are prepared in Mueller-Hinton broth in a range of 2560 µg/ml-0.15 µg/ml plus a solvent control. • 2. Two milliliters of drug dilution (10X) are added to sterile screw cap bottles to which 18 ml of Mueller-Hinton agar containing 5.6% defibrinated sheep blood is added. Final drug concentration ranges 256 µg/ml-0.015 µg/ml in agar containing 5% sheep blood. • 3. A few isolated colonies of each test organism are inoculated into 5 ml trypticase soy broth or brain heart infusion broth. The cultures are shaken at 35 °C. for 5 hours. • 4. Each culture is diluted 1:50 (10^-1.7) in Mueller-Hinton broth and applied to agar plates using a Steers replicator. Control plates should be seeded last to ensure that viable organisms are present throughout the procedure. […]

[2] = system: Staphylococcus aureus Smith; assay: In vivo antibacterial activity, acute lethal infection in mice; conditions: for Survival Ratio 7 Days After Infection With S. aureus Smith: mice, 30 minutes after infection
Experimental: (§1) The in vivo antibacterial activity of antibiotic LL-E19020 Gamma is established by infecting female CD-1 mice from Charles River Laboratories, weighing 20±2 g each, intraperitoneally with either 2.0 X 10^2 CFU/0.5 ml Streptococcus pyogenes C203 suspended in broth or 2.8 X 10^6 CFU/0.5 ml Straphylococcus aureus Smith suspended in 5% hog gastric mucin. The mice were treated subcutaneously, 30 minutes after infection with the indicated dose of the test compound in 0.5 ml of 0.2% aqueous agar. Toxicity studies were performed administering the same treatment to uninfected mice.

[3] = system: Streptococcus pyogenes C203; assay: as above; conditions: for Survival Ratio 7 Days After Infection With S. pyogenes C203: mice, 30 minutes after infection
Experimental: as §1

[4] = In vivo toxicity in uninfected mice; conditions: for In Vivo Toxicity: Survival Ratio 7 Days After Administration Of Single Subcutaneous Dose: uninfected mice
Experimental: as §1

[5] = Growth of chickens and efficiency of feed utilization; assay type: in vivo, Peterson X Arbor Acres chicks; conditions: 25 ppm in the diet
Experimental: In this test, one day old Peterson X Arbor Acres chicks are sorted into equal weight groups of 5 males and 5 females per cage. Cages are randomized to treatment groups with six replicates per treatment. The test compound is evaluated 25 ppm in the diet against chicks receiving a non-medicated diet and a diet containing 200 ppm of penicillin as a positive control.
The cages are weighed at day 1 and at day 14 and feed consumption is measured on weigh days. Feed and water are offered ad libitum and lighting and supplemental heat are provided continuously.
The poultry diet employed in the test is as follows:
The vitamin-amino acid premix in the above feed composition is prepared from the following formulation. The expressions of quantity relate to units per kilogram of the finished feed composition.

[6] = Single Subcutaneous Dose 0.5 MG/KG
[7] = Single Subcutaneous Dose 1 MG/KG
[8] = Single Subcutaneous Dose 2 MG/KG
[9] = Single Subcutaneous Dose 4 MG/KG
[10] = Single Subcutaneous Dose 8 MG/KG
[11] = Single Subcutaneous Dose 16 MG/KG

For `C/C=C\C=C\C1OC(O)(C(COC2CC(OC)C(OC3CC(OC)C(OC4CC(OC)C(O)C(C)O4)C(C)O3)C(C)O2)C(=O)NC/C=C/C=C(\C)C(OC)C(C)C2CC(O)C(/C=C/C=C/C=C/C(=O)O)O2)C(OC(=O)Cc2ccc(O)cc2)C(O)C1(C)C` (centres unmarked) [LL-E19020 Gamma], the MIC [1] was 0.12 to 16 µg/mL (≈ 0.0966 to 12.9 µM), the “Survival Ratio 7 Days After Infection With S. aureus Smith” value [2, 6] was 0/5 and the “Survival Ratio 7 Days After Infection With S. aureus Smith” value [2, 7] was 0/5. For the same compound, the “Survival Ratio 7 Days After Infection With S. aureus Smith” value [2, 8] was 0/5, the “Survival Ratio 7 Days After Infection With S. aureus Smith” value [2, 9] was 0/5 and the “Survival Ratio 7 Days After Infection With S. aureus Smith” value [2, 10] was 0/5. The “Survival Ratio 7 Days After Infection With S. aureus Smith” value [2, 11] was 0/5, the “Survival Ratio 7 Days After Infection With S. aureus Smith” value ([2]; Single Subcutaneous Dose 32 MG/KG) was 0/5 and the “Survival Ratio 7 Days After Infection With S. aureus Smith” value ([2]; Single Subcutaneous Dose 64 MG/KG) was 0/5. For the same compound, the ED50 ([2]; sc, acute lethal infection in mice, Staphylococcus aureus Smith, single subcutaneous dose, read-out: approximate ED50) was greater than 64 mg/kg, the “Survival Ratio 7 Days After Infection With S. pyogenes C203” value [3, 6] was 0/5 and the “Survival Ratio 7 Days After Infection With S. pyogenes C203” value [3, 7] was 0/5. The “Survival Ratio 7 Days After Infection With S. pyogenes C203” value [3, 8] was 0/5, the “Survival Ratio 7 Days After Infection With S. pyogenes C203” value [3, 9] was 1/5 and the “Survival Ratio 7 Days After Infection With S. pyogenes C203” value [3, 10] was 3/5. The “Survival Ratio 7 Days After Infection With S. pyogenes C203” value [3, 11] was 4/5, the ED50 ([3]; sc, acute lethal infection in mice, Streptococcus pyogenes C203, single subcutaneous dose, read-out: approximate ED50) was 4 to 8 mg/kg and the toxic symptoms ([4]; dosed subcutaneously at the same levels used in the protection study (0.5-64 mg/kg)) was “did not exhibit toxic symptoms”. For the same compound, the “In Vivo Toxicity: Survival Ratio 7 Days After Administration Of Single Subcutaneous Dose” value ([4]; 0.5 MG/KG) was 2/2, the “In Vivo Toxicity: Survival Ratio 7 Days After Administration Of Single Subcutaneous Dose” value ([4]; 1 MG/KG) was 2/2 and the “In Vivo Toxicity: Survival Ratio 7 Days After Administration Of Single Subcutaneous Dose” value ([4]; 2 MG/KG) was 2/2. For the same compound, the “In Vivo Toxicity: Survival Ratio 7 Days After Administration Of Single Subcutaneous Dose” value ([4]; 4 MG/KG) was 2/2, the “In Vivo Toxicity: Survival Ratio 7 Days After Administration Of Single Subcutaneous Dose” value ([4]; 8 MG/KG) was 2/2 and the “In Vivo Toxicity: Survival Ratio 7 Days After Administration Of Single Subcutaneous Dose” value ([4]; 16 MG/KG) was 2/2. The “In Vivo Toxicity: Survival Ratio 7 Days After Administration Of Single Subcutaneous Dose” value ([4]; 32 MG/KG) was 2/2, the “In Vivo Toxicity: Survival Ratio 7 Days After Administration Of Single Subcutaneous Dose” value ([4]; 64 MG/KG) was 2/2 and the “Weight Gain” value ([5]; chicks, day 1 to day 14) was 342 g. The “Weight Gain, % improvement over control” value ([5]; chicks, day 1 to day 14) was 6.5%, the feed conversion ([5]; chicks, day 1 to day 14) was 1.297 and the “feed conversion, % improvement over control” value ([5]; chicks, day 1 to day 14) was 1.9%. The “efficiency of feed utilization, result in words” value ([5]; over unmedicated controls) was “increased the efficiency of feed utilization” and the “weight gain of chicks, result in words” value ([5]; over unmedicated controls) was “improved weight gain of chicks”.
